According to ChEMBL document CHEMBL1133800, “Microwave assisted synthesis of N-arylphthalamic acids with hyperlipidemic activity” (2001):

How the values were obtained:
Type in all cases: functional
Mus musculus [1] = species on record: Mus musculus; experiment: Animal body weight was evaluated in Swiss white mice before treatment with the compound
Mus musculus [2] = experiment: Animal body weight was evaluated in Swiss white mice treated with 20 mg/kg/day of ip administration for 14 days; settings: route intraperitoneal
Mus musculus [3] = species on record: Mus musculus; experiment: Plasma cholesterol level was evaluated in Swiss white mice before treatment with the compound
Mus musculus [4] = experiment: Plasma cholesterol level was evaluated in Swiss white mice treated with 20 mg/kg/day of ip administration for 14 days; settings: route intraperitoneal
Mus musculus [5] = species on record: Mus musculus; experiment: Plasma triglyceride level was evaluated in Swiss white mice before treatment with the compound
Mus musculus [6] = experiment: Plasma triglyceride level was evaluated in Swiss white mice treated with 20 mg/kg/day of ip administration for 14 days; settings: route intraperitoneal

SMILES | Body weight (Mus musculus [1]) [g] | Body weight (Mus musculus [2]) [g] | Cholesterol (Mus musculus [3]) [mM] | Cholesterol (Mus musculus [4]) [mM] | Triglycerides (Mus musculus [5]) [mM] | Triglycerides (Mus musculus [6]) [mM]
O=C(O)c1ccccc1C(=O)Nn1cnnc1 | 35 | 39 | 2.46 | 2.95 | 1.12 | < 1.49
O=C(O)c1ccccc1C(=O)Nc1ccc(F)cc1 | 20 | <25 | 2.66 | < 3.17 | 1.26 | < 1.48
O=C(O)c1ccccc1C(=O)Nc1cccc(Cl)c1 | 24 | <28 | 2.17 | < 2.48 | 1.04 | < 1.28
O=C(O)c1ccccc1C(=O)Nc1ccccc1F | 26 | <30 | 3.06 | < 3.4 | 0.94 | < 1.23
O=C(O)c1ccccc1C(=O)Nc1ccccc1Cl | 26 | <29 | 2.11 | < 2.43 | 1.06 | < 1.32
O=C(O)c1ccccc1C(=O)Nc1ccccc1 | 28 | 29 | 2.71 | < 3.06 | 1.07 | < 1.3
O=C(O)c1ccccc1C(=O)Nc1nc[nH]n1 | 35 | 38 | 2.45 | 2.78 | 1.14 | < 1.58
O=C(O)c1ccccc1C(=O)Nc1ccc(Cl)cc1 | 25 | 28 | 2.3 | < 2.51 | 0.86 | < 1.06
O=C(O)c1ccccc1C(=O)Nc1cccc(F)c1 | 26 | <29 | 3.02 | < 3.28 | 1.01 | < 1.35
